In the supplement of paper PMC11061612:

How the values were obtained:
Assay in all cases: combination Emax (second highest fraction inhibited in the dose matrix, 72 h); higher = more inhibition; extreme values may be limits of the assay
[1] = test system: HSC-4 (Oral Cavity Carcinoma)
In short: (§1)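 Cell lines grown in DMEM/F12 or RPMI with 10% FBS were plated in 1536-well plates and held 24 hours at 37°C, 5% CO2 before 72 hours of exposure to two-drug dose matrices, with DMSO typically at 0.2%. CellTiter-Glo 2.0 luminescence gave viability, which was converted to inhibition. Vehicle wells were set to 0 and blank wells to 1. Combination Emax is the second-highest inhibition in the matrix, and Bliss excess is the observed combination effect minus the expected EA + EB − EA·EB, where EA and EB are the single-agent effects.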

[2] = test system: LU-65 (Non-Small Cell Lung Carcinoma)
In short: as §1

[3] = test system: NCI-H358 (Lung Adenocarcinoma)
In short: as §1

[4] = test system: NUGC-3 (Gastric Carcinoma)
In short: as §1

[5] = test system: OE19 (Esophageal Adenocarcinoma)
In short: as §1

[6] = test system: NCI-H727 (Other Solid Carcinomas)
In short: as §1

[7] = test system: SW13 (Other Solid Carcinomas)
In short: as §1

[8] = test system: HGC-27 (Gastric Carcinoma)
In short: as §1

[9] = test system: EoL-1-cell (Acute Myeloid Leukemia)
In short: as §1

[10] = test system: HOP-62 (Lung Adenocarcinoma)
In short: as §1

YH-13 (Glioblastoma) = test system: YH-13 (Glioblastoma)
In short: as §1

[11] = test system: Hs-766T (Pancreatic Carcinoma)
In short: as §1

EW-24 (Ewing's Sarcoma) = test system: EW-24 (Ewing's Sarcoma)
In short: as §1

[12] = test system: MIA-PaCa-2 (Pancreatic Carcinoma)
In short: as §1

D-263MG (Glioblastoma) = test system: D-263MG (Glioblastoma)
In short: as §1

[13] = test system: Caov-4 (Ovarian Carcinoma)
In short: as §1

NB69 (Neuroblastoma) = test system: NB69 (Neuroblastoma)
In short: as §1

[14] = test system: MLMA (Other Blood Carcinomas)
In short: as §1

[15] = test system: OSC-20 (Oral Cavity Carcinoma)
In short: as §1

PWR-1E (Non-Cancerous) = test system: PWR-1E (Non-Cancerous)
In short: as §1

Row | SMILES | combination Emax [1] | combination Emax [2] | combination Emax [3] | combination Emax [4] | combination Emax [5] | combination Emax [6] | combination Emax [7] | combination Emax [8] | combination Emax [9] | combination Emax [10] | combination Emax (YH-13 (Glioblastoma)) | combination Emax [11] | combination Emax (EW-24 (Ewing's Sarcoma)) | combination Emax [12] | combination Emax (D-263MG (Glioblastoma)) | combination Emax [13] | combination Emax (NB69 (Neuroblastoma)) | combination Emax [14] | combination Emax [15] | combination Emax (PWR-1E (Non-Cancerous))
1 | NC1(C(=O)N[C@@H](CCO)c2ccc(Cl)cc2)CCN(c2ncnc3[nH]ccc23)CC1 [Capivasertib] + Cn1cnc2c(F)c(Nc3ccc(Br)cc3Cl)c(C(=O)NOCCO)cc21 [Selumetinib] (first compound max 10 µM, 7x7, partner max 10 µM) | 0.609 | 0.729 | 0.585 | 0.662 | 0.573 | 0.729 | 0.65 | 0.841 | 1 | 0.644 | 0.598 | 0.591 | 0.485 | 0.643 | 0.518 | 0.613 | 0.903 | 0.513 | 0.451 | 0.486
2 | COc1nnc2ccc(N3CCC(c4ccc(OCCN5CCN(C)C(=O)[C@H]5C)cc4)CC3)nn12 [AZD5153] + CCN(CCO)CCCOc1ccc2c(Nc3cc(CC(=O)Nc4cccc(F)c4)[nH]n3)ncnc2c1 [AZD2811] (first compound max 1 µM, 7x7, partner max 1 µM) | 0.292 | 0.494 | 0.352 | 0.579 | 0.693 | 0.404 | 0.455 | 0.82 | 1 | 0.631 | 0.585 | 0.416 | 0.616 | 0.88 | 0.445 | 0.597 | 0.952 | 0.915 | 0.261 | 0.782
3 | NC1(C(=O)N[C@@H](CCO)c2ccc(Cl)cc2)CCN(c2ncnc3[nH]ccc23)CC1 [Capivasertib] + CC(C)n1c(=O)n(C)c2cnc3cc(F)c(-c4ccc(OCCCN5CCCCC5)nc4)cc3c21 [AZD1390] (first compound max 10 µM, 7x7, partner max 0.3 µM) | 0.337 | 0.401 | 0.374 | 0.339 | 0.346 | 0.35 | 0.35 | 0.852 | 0.874 | 0.374 | 0.541 | 0.209 | 0.407 | 0.188 | 0.249 | 0.245 | 0.341 | 0.452 | 0.256 | 0.4
4 | NC1(C(=O)N[C@@H](CCO)c2ccc(Cl)cc2)CCN(c2ncnc3[nH]ccc23)CC1 [Capivasertib] + CCN(CCO)CCCOc1ccc2c(Nc3cc(CC(=O)Nc4cccc(F)c4)[nH]n3)ncnc2c1 [AZD2811] (first compound max 10 µM, 7x7, partner max 1 µM) | 0.514 | 0.461 | 0.394 | 0.448 | 0.847 | 0.418 | 0.515 | 0.939 | 1 | 0.483 | 0.627 | 0.23 | 0.659 | 0.418 | 0.455 | 0.383 | 0.679 | 0.461 | 0.387 | 0.713
5 | CC1(C)CCC(CN2CCN(c3ccc(C(=O)NS(=O)(=O)c4ccc(NCC5CCOCC5)c([N+](=O)[O-])c4)c(Oc4cnc5[nH]ccc5c4)c3)CC2)=C(c2ccc(Cl)cc2)C1 [Venetoclax] + C=CCn1c(=O)c2cnc(Nc3ccc(N4CCN(C)CC4)cc3)nc2n1-c1cccc(C(C)(C)O)n1 [AZD1775] (first compound max 1 µM, partner max 1 µM) | 0.372 | 0.733 | 0.798 | 0.596 | 0.223 | 0.689 | 0.289 | 0.54 | 1 | 0.446 | 0.381 | 0.53 | 0.34 | 0.795 | 0.808 | 0.811 | 0.849 | 0.945 | 0.253 | 0.548
6 | CCc1c2c(nc3ccc(O)cc13)-c1cc3c(c(=O)n1C2)COC(=O)[C@]3(O)CC [SN-38] + CN(C)CCCOc1ccc(-c2ccc3ncc4c(c3c2)n(C2CCOCC2)c(=O)n4C)cn1 [AZD0156] (first compound max 0.3 µM, 7x7, partner max 1 µM) | 0.804 | 0.836 | 0.722 | 0.984 | 0.618 | 0.297 | 0.988 | 0.885 | 0.995 | 0.664 | 0.509 | 0.39 | 0.781 | 0.945 | 0.722 | 0.954 | 0.995 | 0.877 | 0.716 | 0.946
7 | COc1nnc2ccc(N3CCC(c4ccc(OCCN5CCN(C)C(=O)[C@H]5C)cc4)CC3)nn12 [AZD5153] + C=CCn1c(=O)c2cnc(Nc3ccc(N4CCN(C)CC4)cc3)nc2n1-c1cccc(C(C)(C)O)n1 [AZD1775] (first compound max 1 µM, partner max 1 µM) | 0.397 | 0.799 | 0.63 | 0.715 | 0.539 | 0.431 | 0.561 | 0.839 | 1 | 0.631 | 0.592 | 0.448 | 0.609 | 0.882 | 0.34 | 0.864 | 0.99 | 0.938 | 0.284 | 0.886
8 | CN(C)CCCOc1ccc(-c2ccc3ncc4c(c3c2)n(C2CCOCC2)c(=O)n4C)cn1 [AZD0156] + O=C(c1cc(Cc2n[nH]c(=O)c3ccccc23)ccc1F)N1CCN(C(=O)C2CC2)CC1 [Olaparib] (first compound max 3 µM, partner max 3 µM) | 0.234 | 0.268 | 0.247 | 0.346 | 0.512 | 0.286 | 0.421 | 0.478 | 0.732 | 0.122 | 0.453 | 0.207 | 0.473 | 0.226 | 0.196 | 0.154 | 0.474 | 0.363 | 0.245 | 0.684
9 | CC1(C)CCC(CN2CCN(c3ccc(C(=O)NS(=O)(=O)c4ccc(NCC5CCOCC5)c([N+](=O)[O-])c4)c(Oc4cnc5[nH]ccc5c4)c3)CC2)=C(c2ccc(Cl)cc2)C1 [Venetoclax] + COc1cc(Nc2ncc3c(n2)-c2ccc(Cl)cc2C(c2c(F)cccc2OC)=NC3)ccc1C(=O)O [Alisertib] (first compound max 1 µM, 7x7, partner max 10 µM) | 0.28 | 0.314 | 0.442 | 0.436 | 0.785 | 0.326 | 0.599 | 0.919 | 1 | 0.456 | 0.549 | 0.393 | 0.428 | 0.583 | 0.518 | 0.447 | 0.915 | 0.866 | 0.345 | 0.859
10 | NC1(C(=O)N[C@@H](CCO)c2ccc(Cl)cc2)CCN(c2ncnc3[nH]ccc23)CC1 [Capivasertib] + COc1nnc2ccc(N3CCC(c4ccc(OCCN5CCN(C)C(=O)[C@H]5C)cc4)CC3)nn12 [AZD5153] (first compound max 10 µM, 7x7, partner max 1 µM) | 0.529 | 0.536 | 0.585 | 0.617 | 0.656 | 0.434 | 0.389 | 0.972 | 1 | 0.648 | 0.723 | 0.457 | 0.756 | 0.813 | 0.562 | 0.526 | 0.91 | 0.994 | 0.296 | 0.861
11 | CC(=O)Nc1cccc(-n2c(=O)n(C3CC3)c(=O)c3c(Nc4ccc(I)cc4F)n(C)c(=O)c(C)c32)c1 [Trametinib] + Cc1nc(-c2cn3c(n2)-c2ccc(-c4cnn(C(C)(C)C(N)=O)c4)cc2OCC3)n(C(C)C)n1 [Taselisib] (first compound max 1 µM, 7x7, partner max 10 µM) | 0.686 | 0.985 | 0.961 | 0.865 | 0.97 | 0.988 | 0.929 | 0.924 | 1 | 0.778 | 0.916 | 0.773 | 0.6 | 0.887 | 0.943 | 0.76 | 1 | 0.661 | 0.669 | 0.864
12 | COc1nnc2ccc(N3CCC(c4ccc(OCCN5CCN(C)C(=O)[C@H]5C)cc4)CC3)nn12 [AZD5153] + CC1(C)CCC(CN2CCN(c3ccc(C(=O)NS(=O)(=O)c4ccc(NCC5CCOCC5)c([N+](=O)[O-])c4)c(Oc4cnc5[nH]ccc5c4)c3)CC2)=C(c2ccc(Cl)cc2)C1 [Venetoclax] (first compound max 1 µM, 7x7, partner max 1 µM) | 0.0567 | 0.458 | 0.345 | 0.464 | 0.494 | 0.34 | 0.384 | 0.777 | 1 | 0.557 | 0.656 | 0.444 | 0.498 | 0.878 | 0.369 | 0.543 | 0.952 | 0.912 | 0.129 | 0.61
13 | COc1cccc(OCCCN)c1-c1cc(Nc2cnc(C#N)cn2)n[nH]1 [Prexasertib] + CCc1c2c(nc3ccc(O)cc13)-c1cc3c(c(=O)n1C2)COC(=O)[C@]3(O)CC [SN-38] (first compound max 1 µM, 7x7, partner max 0.3 µM) | 0.9 | 0.926 | 0.897 | 0.976 | 0.956 | 0.696 | 0.996 | 0.994 | 0.996 | 0.843 | 0.862 | 0.655 | 0.832 | 0.999 | 0.955 | 1 | 1 | 0.948 | 0.735 | 1
